Data on one molecule can be found in patent US10160705B2, “Class of HDAC inhibitors expands the renal progenitor cells population and improves the rate of recovery from acute kidney injury” (University of Pittsburgh—Of the Commonwealth System of …, priority 2011, dated 2018).

One assay has as its system kidney field. Nature of the assay: In situ hybridization for kidney markers (pax2a, pax8, cdh17, wt1a, slc4a4, slcl2a1). The following applies: 3 μM. In kind it is in vivo, zebrafish. Here is the method: PTBA was synthesized as described below. Hydroxyurea and aphidicolin were obtained from Sigma-Aldrich.
In situ hybridization and immunocytochemistry: In situ hybridization was performed as previously described with some modifications.142 Hybridization temperature was 65° C. Embryos were blocked in 2% blocking reagent (Roche) with 5% sheep serum in MAB (100 mM maleic acid and 150 mM NaCl [pH 7.5]). Whole-mount immunocytochemistry with 1:25 mouse anti-α6F antibody (Developmental Studies Hybridoma Bank) and 1:100 Cy3 secondary antibody (Jackson ImmunoResearch) was performed as described previously.108 Embryos were embedded in JB-4 for sectioning per the manufacturer's instructions (Polysciences), sectioned at 5 μm, and mounted with Cytoseal 60 (Richard-Allan Scientific).

A further assay concerns human HDACs. Nature of the assay: Fluorescence histone deacetylation assay with HeLa cell nuclear extract. In kind it is biochemical. Here is the method:
To evaluate this in vitro, the deacetylation of a fluorescent peptide substrate was measured in the presence of human HDACs.
In vitro HDAC activity assays were performed using a fluorescence HDAC assay kit (Active Motif) according to the manufacturer's instructions. For maintaining compound solubility at 5 mM, the final DMSO concentration in all assay wells was increased to 5%. Fluorescence was detected using an M5 Plate Reader ([…])

The next assay relates to lhx1a, pax2a, pax8, ntla. Nature of the assay: Relative qPCR in the trunk region of 10-somite embryos. Format: in vivo, zebrafish. The following applies: 3 μM. Here is the method:
Several of the genes analyzed by qPCR, including lhx1a and pax2a, show expression in anterior regions of the embryo as well as the IM. To focus more specifically on effects in the IM, cDNA samples taken from the trunks of treated and control embryos were examined. Samples for trunk RNA extraction were prepared by cutting embryos just above the first somite with microscissors and discarding the anterior portion. The trunk portions were homogenized with a plastic microcentrifuge pestle in 500 μL of TRI reagent (Ambion), and RNA was isolated using an RNeasy Micro Kit (QIAGEN) per the manufacturer's instructions. 1 μg RNA was heated to 75° C. for 5 min and then placed on ice. […]
Primer sets were designed using NetPrimer and Beacon Designer (ver. 7.51) primer analysis software (PREMIER Biosoft). […] Primer melting temperatures were maintained between 60° C. and 64° C. as determined by NetPrimer. […] The reference gene primer sets have been previously described (Tang, R., Dodd, A., Lai, D., McNabb, W. C. & Love, D. R. Validation of zebrafish (Danio rerio) reference genes for quantitative real-time RT-PCR normalization. Acta Biochim Biophys Sin (Shanghai) 39, 384-390, (2007)) with one modification. […]
Relative gene expression was calculated using iQ5 software (ver. 2.0, Bio-Rad) to determine normalized expression levels (ΔΔCt method). […]
On the technique in general: In qPCR the cycle at which signal appears reflects the starting amount.

The test system of another assay is histone H4. Nature of the assay: Histone H4 hyperacetylation Western blot in treated embryos. Format: in vivo, zebrafish. The conditions noted are these: 24 hpf embryos, 6 hours; 3 μM PTBA, 25 μM PBA, 200 nM TSA. Here is the method:
It was next determined whether the HDACi function of PTBA was quantifiable in vivo. 24 hpf embryos were treated with 3 μM PTBA, 25 μM PBA, or 200 nM TSA for 6 hours. Protein extracts were prepared and immunoblotted with an anti-hyperacetylated histone H4 antibody. […] Furthermore, increasing the compound concentration caused a corresponding increase in hyperacetylation (FIG. 21).
SDS-PAGE and Western blotting were performed as described previously with some modifications (Noel, E. S. et al. Organ-specific requirements for Hdac1 in liver and pancreas formation. Dev Biol 322, 237-250, (2008)). Proteins were separated on 18% SDS-PAGE gels. Membranes were incubated at 4° C. overnight with 1:1000 anti-hyperacetylated histone H4 antibody (06-946, Millipore) or 1:1000 anti-α-tubulin antibody (Sigma-Aldrich) in PBT containing 5% nonfat milk.
In general terms: In western blotting, separated proteins are transferred to a membrane and probed.

Turning to `O=C(O)CCCSc1ccccc1` [UPHD-00020, 4-(phenylthio)butanoic acid (PTBA)], the “expansion of slc4a4 (proximal tubule)” value with kidney field (48 hpf) was found to be 92%. The “pax2a expression at 24 hpf” value in the assay on kidney field (treatment beginning at 16.5 hpf (15 somites)) was “no kidney field expansion”. The “pax2a expression at 24 hpf” value in the assay with kidney field (treatment initiated between 2 hpf and 14 hpf (10 somites)) was “expanded pax2a expression”. Also, the “HDAC activity elicited by 10 μg HeLa extract, percent of the control value” in the assay with human HDACs (5 mM compound) is listed as 30%. Besides, the “reduction of HDAC activity” value in the assay on human HDACs (millimolar concentrations) came out at 70%. In addition, in the assay on lhx1a, pax2a, pax8, ntla, the “increase in pax2a expression by qPCR” value is reported as “almost two-fold increase” and the “increase in relative lhx1a transcript by qPCR” value is “three-fold increase”. The “histone H4 hyperacetylation” value with histone H4 is “Histone H4 hyperacetylation was observed”.
